Measurements published in patent publication EP3463364B1, “PYRAZINE DERIVATIVES FOR USE IN THE TREATMENT OF DISEASES ASSOCIATED WITH CELL CYCLE DYSREGULATION” (University of Patras, priority 2016, dated 2017).

Target: T1, exogenous Geminin-Cdtl protein complex (Homo sapiens, UniProt O75496+Q9H211)
T1 construct: expressed in transfected cells; host or cells: MCF7
T1 sequence (Q9H211 1-546): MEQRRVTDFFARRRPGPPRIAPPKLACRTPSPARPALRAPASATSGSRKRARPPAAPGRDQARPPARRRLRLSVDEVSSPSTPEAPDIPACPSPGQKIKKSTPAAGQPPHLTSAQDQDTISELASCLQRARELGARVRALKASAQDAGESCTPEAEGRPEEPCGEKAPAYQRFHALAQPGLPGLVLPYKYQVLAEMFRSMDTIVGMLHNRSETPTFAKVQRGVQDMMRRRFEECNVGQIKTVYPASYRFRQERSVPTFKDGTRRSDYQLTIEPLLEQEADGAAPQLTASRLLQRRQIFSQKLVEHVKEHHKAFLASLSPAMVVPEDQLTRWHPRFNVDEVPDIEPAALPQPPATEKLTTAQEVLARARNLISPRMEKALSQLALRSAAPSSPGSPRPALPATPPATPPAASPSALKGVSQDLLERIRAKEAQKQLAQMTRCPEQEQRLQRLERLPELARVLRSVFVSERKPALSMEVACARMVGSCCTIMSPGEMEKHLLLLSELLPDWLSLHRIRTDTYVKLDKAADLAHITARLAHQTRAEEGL
T1 sequence (O75496 1-209): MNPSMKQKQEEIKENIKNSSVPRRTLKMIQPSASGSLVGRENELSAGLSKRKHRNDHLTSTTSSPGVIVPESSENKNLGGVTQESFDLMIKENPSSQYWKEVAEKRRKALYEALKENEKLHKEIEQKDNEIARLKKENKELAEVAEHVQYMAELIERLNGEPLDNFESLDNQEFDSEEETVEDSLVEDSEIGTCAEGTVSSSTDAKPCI
Experiment: FRET acceptor photobleaching cellular assay in co-transfected MCF7 cells (Cdt1-GFP & Geminin-dhcRed)
Assay type: cell-based
Conditions: 100µM, 24-hour incubation, MCF7 cells co-transfected with Cdt1-GFP & Geminin-dhcRed (Fig. 3)
Procedure: A cellular assay was developed and applied using epithelial cells of breast adenocarcinoma (MCF7), for the purpose of the ex vivo study of the ability of the synthetic chemical compound AF-615/30368009 to inhibit formation and/or disrupt the exogenous Geminin-Cdtl protein complex.
The appropriate number of cells was seeded onto glass coverslips and cells were allowed in culture in order to adhere. Then they were transiently co-transfected with plasmid expression vectors pcDNA3.1-EGFP and pdiHcRed-N1 containing the DNA regions encoding for the proteins Cdtl-GFP and Geminin-dhcRed respectively. Three to five hours after co-transfection, the medium was removed and replaced with fresh medium which contained the synthetic chemical compound AF-615/30368009 at a concentration of 100µM. […]
MCF7 cancer cells fixed as described above were used to perform FRET acceptor photobleaching. In order to quantify the efficiency (E) of the FRET phenomenon, the following equation was used: (4) E = (Dpost - Dpre)/Dpost, wherein Dpre and Dpost is the mean value of fluorescence intensity of the donor before and after photobleaching of the acceptor, respectively.
For the purposes of this invention the inhibitory effect of the synthetic compound AF-615/30368009 on the exogenous Geminin-Cdtl protein complex was calculated as the percent (%) change in efficiency (E) of the FRET phenomenon. […]

O=C(NNC(=S)N1CCOCC1)c1cnccn1 [AF-615/30368009, N'-(morpholine-4-carbothioyl)pyrazine-2-carbohydrazide]
efficiency (E) of the FRET phenomenon: decrease in (E), although not statistically significant
